{"source": "ChEMBL document CHEMBL5512671", "about": "“Structure-Based Optimization of Novel Sterol 24-C-Methyltransferase Inhibitors for the Treatment of Candida albicans Infections” (J Med Chem, 2024)", "key": {"Candida albicans [1]": {"test_system": "Candida albicans", "experiment": "Synergistic antifungal activity against Candida albicans SC5314 assessed as inhibition of fungal growth incubated for 24 hrs in presence of terbinafine by broth microdilution checkerboard assay", "type": "functional"}, "Candida albicans [2]": {"test_system": "Candida albicans", "experiment": "Antifungal activity against Candida albicans SC5314 assessed as inhibition of hyphae growth measured after 5 days cultured under solid spider agar medium by microscopy based analysis", "type": "functional, organism-based", "details": "dose 0.25-1 µg/ml, time 5.0 day"}, "[3]": {"experiment": "Hemolytic activity in mouse RBC assessed as hemolysis at 2 to 32 ug/ml incubated for 60 mins by absorbance based analysis relative to control", "type": "toxicity, cell-based, Erythrocyte", "details": "mouse red blood cells, at 2 to 32 µg/mL, dose 2-32 µg/ml, read-out: Activity"}, "Candida albicans [4]": {"test_system": "Candida albicans", "experiment": "Antifungal activity against Candida albicans SC5314 assessed as inhibition of hyphae growth incubated for 24 hrs by CLSI protocol based broth microdilution method", "type": "functional"}, "Candida albicans [5]": {"test_system": "Candida albicans", "experiment": "Downregulation of HWP1 expression in Candida albicans SC5314 at 1 ug/ml incubated for 6 hrs by qPCR analysis", "type": "functional", "details": "dose 1.0 µg/ml"}, "Candida albicans [6]": {"test_system": "Candida albicans", "experiment": "Upregulation of NRG1 expression in Candida albicans SC5314 at 1 ug/ml incubated for 6 hrs by qPCR analysis", "type": "functional", "details": "dose 1.0 µg/ml"}, "Candida albicans [7]": {"test_system": "Candida albicans", "experiment": "Antifungal activity against Candida albicans SC5314 assessed as inhibition of hyphae growth measured after 30 passages", "type": "functional, organism-based"}, "Candida parapsilosis [8]": {"test_system": "Candida parapsilosis", "experiment": "Antifungal activity against Candida parapsilosis CP1 assessed as inhibition of fungal growth incubated for 24 hrs by CLSI protocol based broth microdilution method", "type": "functional", "details": "Lodderomyces parapsilosis"}, "Candida albicans [9]": {"test_system": "Candida albicans", "experiment": "Antifungal activity against Candida albicans SC5314 assessed as inhibition of fungal growth incubated for 24 hrs by CLSI protocol based broth microdilution method", "type": "functional"}, "Candida albicans [10]": {"test_system": "Candida albicans", "experiment": "Synergistic antifungal activity against Candida albicans SC5314 assessed as inhibition of fungal growth incubated for 24 hrs in presence of tridemorph by broth microdilution checkerboard assay", "type": "functional"}, "Candida albicans [11]": {"test_system": "Candida albicans", "experiment": "Antifungal activity against Candida albicans SC5314 infected in Balb/C mouse candidiasis model assessed as filamentation defect at 0.5 % administered topically and measured after 72 hrs in presence of tridemorph by PAS staining based analysis", "type": "functional, organism-based"}, "Candida albicans [12]": {"test_system": "Candida albicans", "experiment": "Antifungal activity against Candida albicans SC5314 infected in Balb/C mouse candidiasis model assessed as decrease in skin fungal burden by measuring fold change at 0.5 % administered topically and measured after 72 hrs in presence of terbinafine", "type": "functional"}, "Candida albicans [13]": {"test_system": "Candida albicans", "experiment": "Antifungal activity against Candida albicans SC5314 assessed as inhibition of hyphae growth measured after 6 hrs cultured under RPMI1640 medium/5% serum by microscopy based analysis", "type": "functional, organism-based", "details": "dose 0.25-1 µg/ml"}, "Nakaseomyces glabratus [14]": {"test_system": "Nakaseomyces glabratus", "experiment": "Antifungal activity against Candida glabrata CG2 assessed as inhibition of fungal growth incubated for 24 hrs by CLSI protocol based broth microdilution method", "type": "functional"}, "Candida albicans [15]": {"test_system": "Candida albicans", "experiment": "Antifungal activity against Candida albicans SC5314 assessed as inhibition of morphological transition at 0.5 ug/ml measured after 5 days cultured under solid spider agar medium by microscopy based analysis relative to control", "type": "functional", "design": "scale not given: the % may be the effect or the level left", "details": "dose 0.5 µg/ml; time 5 day"}, "[16]": {"experiment": "Cytotoxicity against human HUVEC cells incubated for 48 hrs by CCK-8 method", "type": "toxicity, cell-based"}, "Candida albicans [17]": {"test_system": "Candida albicans", "experiment": "Antifungal activity against Candida albicans SC5314 assessed as inhibition of hyphae growth measured after 5 days cultured under solid spider agar medium and 10mM GlcNAc by microscopy based analysis", "type": "functional, organism-based", "details": "dose 0.25-1 µg/ml, time 5.0 day"}, "Candida albicans [18]": {"test_system": "Candida albicans", "experiment": "Downregulation of RAS1 gene level in Candida albicans SC5314 at 1 ug/ml incubated for 6 hrs by qPCR analysis", "type": "functional", "details": "dose 1.0 µg/ml"}, "Candida parapsilosis [19]": {"test_system": "Candida parapsilosis", "experiment": "Antifungal activity against Candida parapsilosis CP1 assessed as effect on structure at 1 ug/ml measured after 6 hrs by microscopy based analysis", "type": "functional, organism-based", "details": "dose 1.0 µg/ml"}, "Candida albicans [20]": {"test_system": "Candida albicans", "experiment": "Antifungal activity against Candida albicans SC5314 infected in Balb/C mouse candidiasis model assessed as decrease in skin fungal burden by measuring fold change at 0.5 % administered topically and measured after 72 hrs in presence of tridemorph", "type": "functional"}, "Nakaseomyces glabratus [21]": {"test_system": "Nakaseomyces glabratus", "experiment": "Antifungal activity against Candida glabrata CG2 assessed as inhibition of hyphae formation at 1 ug/ml measured after 6 hrs by microscopy based analysis", "type": "functional, organism-based", "details": "dose 1.0 µg/ml"}, "Candida parapsilosis [22]": {"test_system": "Candida parapsilosis", "experiment": "Antifungal activity against Candida parapsilosis CP1 assessed as inhibition of hyphae formation at 1 ug/ml measured after 6 hrs by microscopy based analysis", "type": "functional, organism-based", "details": "dose 1.0 µg/ml"}, "Candida albicans [23]": {"test_system": "Candida albicans", "experiment": "Fungistatic activity against Candida albicans SC5314 at 1 ug/ml incubated for 3 hrs in presence of terbinafine by SYTOX staining based analysis", "type": "functional, organism-based", "details": "dose 1.0 µg/ml"}, "Candida albicans [24]": {"test_system": "Candida albicans", "experiment": "Downregulation of UME6 expression in Candida albicans SC5314 at 1 ug/ml incubated for 6 hrs by qPCR analysis", "type": "functional", "details": "dose 1.0 µg/ml"}, "Candida albicans [25]": {"test_system": "Candida albicans", "experiment": "Antifungal activity against Candida albicans SC5314 infected in Balb/C mouse candidiasis model assessed as filamentation defect at 0.5 % administered topically and measured after 72 hrs in presence of terbinafine by PAS staining based analysis", "type": "functional, organism-based"}, "Candida albicans [26]": {"test_system": "Candida albicans", "experiment": "Antifungal activity against Candida albicans SC5314 infected in Balb/C mouse candidiasis model assessed as appearance of inflammatory infiltrates at 0.5 % administered topically and measured after 72 hrs in presence of terbinafine by H and E staining based analysis", "type": "functional, organism-based"}, "Nakaseomyces glabratus [27]": {"test_system": "Nakaseomyces glabratus", "experiment": "Antifungal activity against Candida glabrata CG2 assessed as effect on cell size at 1 ug/ml measured after 6 hrs by microscopy based analysis", "type": "functional, organism-based", "details": "dose 1.0 µg/ml"}, "Candida albicans [28]": {"test_system": "Candida albicans", "experiment": "Upregulation of PDE2 gene level in Candida albicans SC5314 at 1 ug/ml incubated for 6 hrs by qPCR analysis", "type": "functional", "details": "dose 1.0 µg/ml"}, "[29]": {"target": "T1, Sterol 24-C-methyltransferase (Candida albicans (strain SC5314 / ATCC MYA-2876) (Yeast), UniProt O74198)", "T1 sequence (O74198 whole entry)": "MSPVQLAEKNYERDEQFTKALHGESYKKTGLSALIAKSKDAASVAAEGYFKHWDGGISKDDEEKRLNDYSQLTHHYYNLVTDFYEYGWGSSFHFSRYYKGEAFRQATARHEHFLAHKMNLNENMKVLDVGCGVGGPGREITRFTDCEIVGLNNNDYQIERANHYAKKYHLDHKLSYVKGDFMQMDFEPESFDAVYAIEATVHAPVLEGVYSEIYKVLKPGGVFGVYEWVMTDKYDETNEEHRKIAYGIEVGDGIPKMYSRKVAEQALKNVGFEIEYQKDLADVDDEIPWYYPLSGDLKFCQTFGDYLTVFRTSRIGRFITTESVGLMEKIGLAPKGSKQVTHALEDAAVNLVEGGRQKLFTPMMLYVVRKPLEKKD", "experiment": "Inhibition of recombinant Candida albicans SC5314 Erg6 methyltransferase activity using zymosterol as substrate incubated for 15 mins followed by substrate addition by liquid scintillation counter analysis"}, "Candida albicans [30]": {"test_system": "Candida albicans", "experiment": "Antifungal activity against Candida albicans SC5314 assessed as inhibition of morphological transition at 0.5 ug/ml measured after 5 days cultured under YPD embedded agar medium by microscopy based analysis relative to control", "type": "functional", "design": "scale not given: the % may be the effect or the level left", "details": "dose 0.5 µg/ml; time 5 day"}, "Candida albicans [31]": {"test_system": "Candida albicans", "experiment": "Antifungal activity against Candida albicans CAI4/pBA1-ERG6 assessed as inhibition of hyphae growth incubated for 24 hrs by CLSI protocol based broth microdilution method", "type": "functional, organism-based"}, "[Candida] auris": {"test_system": "[Candida] auris", "experiment": "Antifungal activity against Candida auris CBS12774 assessed as inhibition of fungal growth incubated for 24 hrs by CLSI protocol based broth microdilution method", "type": "functional", "details": "Candidozyma auris"}, "Candida albicans [32]": {"test_system": "Candida albicans", "experiment": "Antifungal activity against Candida albicans SC5314 infected in Balb/C mouse candidiasis model assessed as appearance of inflammatory infiltrates at 0.5 % administered topically and measured after 72 hrs by H and E staining based analysis", "type": "functional, organism-based"}}, "note": "Calls of active or inactive are those of the source. The rule behind the calls is not given here."}
{"compound": "Cc1c(-n2c(-c3ccc4ccccc4c3)cs/c2=N\\c2ccccc2)c(=O)n(-c2ccccc2)n1C", "values": [{"measurement": "MIC80", "setting": "Candida albicans [1]", "value": 1, "unit": "µg/mL"}, {"measurement": "Activity", "setting": "Candida albicans [2]", "value": "Dose-Dependent Effect"}, {"measurement": "hemolysis at 1 h", "setting": "[3]", "value": "< 1", "unit": "%"}, {"measurement": "MIC50", "setting": "Candida albicans [4]", "value": "> 128", "unit": "µg/mL"}, {"measurement": "Activity", "setting": "Candida albicans [5]", "value": "Active"}, {"measurement": "Activity", "setting": "Candida albicans [6]", "value": "Active"}, {"measurement": "Activity", "setting": "Candida albicans [7]", "value": "Active"}, {"measurement": "MIC", "setting": "Candida parapsilosis [8]", "value": "> 128", "unit": "µg/mL"}, {"measurement": "MIC80", "setting": "Candida albicans [9]", "value": "> 128", "unit": "µg/mL"}, {"measurement": "MIC80", "setting": "Candida albicans [10]", "value": 1, "unit": "µg/mL"}, {"measurement": "Activity", "setting": "Candida albicans [11]", "value": "Active"}, {"measurement": "fold change (FC)", "setting": "Candida albicans [12]", "value": 59.11}, {"measurement": "Activity", "setting": "Candida albicans [13]", "value": "Dose-Dependent Effect"}, {"measurement": "MIC", "setting": "Nakaseomyces glabratus [14]", "value": "> 128", "unit": "µg/mL"}, {"measurement": "Activity", "setting": "Candida albicans [15]", "value": 100, "unit": "%"}, {"measurement": "EC50 at 48 h", "setting": "[16]", "value": "> 50", "unit": "µg/mL"}, {"measurement": "Activity", "setting": "Candida albicans [17]", "value": "Dose-Dependent Effect"}, {"measurement": "Activity", "setting": "Candida albicans [18]", "value": "Active"}, {"measurement": "Activity", "setting": "Candida parapsilosis [19]", "value": "inactive"}, {"measurement": "fold change (FC)", "setting": "Candida albicans [20]", "value": 60.26}, {"measurement": "Activity", "setting": "Nakaseomyces glabratus [21]", "value": "Active"}, {"measurement": "Activity", "setting": "Candida parapsilosis [22]", "value": "Active"}, {"measurement": "Activity", "setting": "Candida albicans [23]", "value": "Active"}, {"measurement": "Activity", "setting": "Candida albicans [24]", "value": "Active"}, {"measurement": "Activity", "setting": "Candida albicans [25]", "value": "Active"}, {"measurement": "Activity", "setting": "Candida albicans [26]", "value": "inactive"}, {"measurement": "Activity", "setting": "Nakaseomyces glabratus [27]", "value": "inactive"}, {"measurement": "Activity", "setting": "Candida albicans [28]", "value": "Active"}, {"measurement": "IC50", "setting": "[29]", "value": 273, "unit": "nM"}, {"measurement": "Activity", "setting": "Candida albicans [30]", "value": 100, "unit": "%"}, {"measurement": "Activity", "setting": "Candida albicans [31]", "value": "Active"}, {"measurement": "MIC", "setting": "[Candida] auris", "value": "> 128", "unit": "µg/mL"}, {"measurement": "Activity", "setting": "Candida albicans [32]", "value": "Active"}]}
